# Laboratory results as given in patent US20050119332A1, “Substituted thiophene compounds as modulators of protein tyrosine phosphatases (PTPases)” (priority 1998, published 2005).
# What was measured:
# [1] = biological target: T1, PTP1B (truncated form, first 321 amino acids) (Homo sapiens, UniProt P18031); experiment: Inhibition of truncated PTP1B, p-nitrophenyl phosphate substrate; format: biochemical; conditions: p-nitrophenyl phosphate 0.16 to 10 mM; pH 5.5; 25° C., 60 minutes
# T1 construct: a truncated form of PTP1B (corresponding to the first 321 amino acids); made in house; host or cells: E. coli
# T1 sequence (P18031 1-321): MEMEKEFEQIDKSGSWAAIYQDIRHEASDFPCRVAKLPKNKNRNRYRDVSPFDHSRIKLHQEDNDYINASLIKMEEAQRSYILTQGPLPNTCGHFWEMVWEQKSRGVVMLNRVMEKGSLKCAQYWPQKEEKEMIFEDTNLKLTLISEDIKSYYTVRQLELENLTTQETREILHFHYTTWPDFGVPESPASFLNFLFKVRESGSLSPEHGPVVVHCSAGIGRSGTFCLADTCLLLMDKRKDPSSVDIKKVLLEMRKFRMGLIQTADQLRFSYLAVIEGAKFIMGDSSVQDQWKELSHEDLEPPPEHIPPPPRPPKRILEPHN
# Protocol: The compounds are evaluated for biological activity with a truncated form of PTP1B (corresponding to the first 321 amino acids), which was expressed in E. coli and purified to apparent homogeneity using published procedures well-known to those skilled in the art. The enzyme reactions are carried out using standard conditions essentially as described by Burke et al. (Biochemistry 35; 15989-15996 (1996)). The assay conditions are as follows. Appropriate concentrations of the compounds of the invention are added to the reaction mixtures containing different concentrations of the substrate, p-nitrophenyl phosphate (range: 0.16 to 10 mM—final assay concentration). The buffer used was 100 mM sodium acetate pH 5.5, 50 mM sodium chloride, 0.1% (w/v) bovine serum albumin and 5 mM dithiothreitol (total volume […]). The reaction was started by addition of the enzyme and carried out in microtiter plates at 25° C. for 60 minutes. The reactions are stopped by addition of NaOH. The enzyme activity was determined by measurement of the absorbance at 405 nm with appropriate corrections for absorbance at 405 nm of the compounds and p-nitrophenyl phosphate. The data are analyzed using nonlinear regression fit to classical Michaelis Menten enzyme kinetic models. Inhibition is expressed as Ki values in μM.
SMILES,melting point,Ki [1] [µM]
"O=C(O)C(=O)Nc1scc(-c2ccccc2)c1C(=O)O (hydrate or solvate) [Example 4, 2-(Oxalyl-amino)-4-phenyl-thiophene-3-carboxylic acid]",196 to 198 °C,–
"COc1ccc(Oc2ccc(-c3cc(NC(=O)C(=O)O)c(C(=O)O)s3)cc2)cc1 (hydrate or solvate) [Example 14, 5-(4-(4-Methoxy-phenoxy)-phenyl)-3-(oxalyl-amino)-thiophene-2-carboxylic acid]",215 °C (dec.),–
"O=C(O)C(=O)Nc1scc(C2CCCCC2)c1C(=O)O (hydrate or solvate) [Example 3, 4-Cyclohexyl-2-(oxalyl-amino)-thiophene-3-carboxylic acid]",> 250 °C,–
"Cc1[nH]cc(NC(=O)C(=O)O)c1C(=O)O [Example 1, 2-Methyl4-(oxalyl-amino)-1H-pyrrole-3-carboxylic acid]",–,200
"O=C(CN1C(=O)c2ccccc2C1=O)NCc1cc(C(=O)O)c(NC(=O)C(=O)O)s1 [Example 41, 5-((2-(1,3-Dioxo-1.3-dihydro-isoindol-2-yl)-acetylamino)-methyl)-2-(oxalyl-amino)-thiophene-3-carboxylic acid]",243 to 244 °C (dec.),–

# Further lines, results first:
melting point,Ki [1] [µM],SMILES
238 to 240 °C,–,"O=C(O)C(=O)Nc1sc(-c2ccccc2)cc1C(=O)O [Example 19, 2-(Oxalyl-amino)-5-phenyl-thiophene-3-carboxylic acid]"
230 to 231 °C,–,"O=C(O)C(=O)Nc1sc(Cc2ccccc2)cc1C(=O)O [Example 17, 2-(Oxalyl-amino)-5-(phenyl-methyl)thiophene-3-carboxylic acid]"
189 to 191 °C,–,"O=C(O)C(=O)Nc1nn(Cc2ccccc2)cc1C(=O)O (hydrate or solvate) [Example 2, 1-Benzyl-3-(oxalyl-amino)-1H-pyrazole-4-carboxylic acid]"
–,100,"O=C(O)C(=O)Nc1scc(-c2ccccc2)c1C(=O)O [Example 4, 2-(Oxalyl-amino)-4-phenyl-thiophene-3-carboxylic acid]"
